Values quoted from earlier work, collected in patent US20230002631A1, “WATER-WASHABLE COMPOSITIONS FOR USE IN 3D PRINTING” (BASF SE, priority 2019, published 2023).
Where two headings read alike, the source gives them in different places. One block for each molecule: values may come before it.

Conditions: for Water solubility (g/L at 20° C.): slightly water-soluble reactive diluents (B1b); for Amount that dissolves in water: room temperature

Molecule: Poly(ethylene glycol) diacrylate
- Water solubility (temperature not given): 21 g/L

Molecule: C=CN1CCCCCC1=O [N-Vinyl-caprolactam (NVC), N-Vinyl-caprolactam]
- Water solubility (temperature not given): 40 g/L

Molecule: C=CC(=O)OCCO [hydroxyethyl acrylate]
- Water solubility (25° C.): 100 g/L

Molecule: C=CC(=O)OCCOCCOCC [2-(2-ethoxyethoxy)ethyl acrylate(EOEOA), 2-(2-ethoxyethoxy)ethyl acrylate]
- Amount that dissolves in water: 13.4 g/L

Molecule: C=C(C)C(=O)OCCO [hydroxyethyl methacrylate]
- Amount that dissolves in water: 11.8 g/L

Molecule: C=CC(=O)OCC(C)OCC(C)OCC(C)OC(=O)C=C (centres unmarked) [tripropylene glycol diacrylate]
- Water solubility (g/L at 20° C.) (20° C.): 4.0 g/L

Molecule: C=CC(=O)OCCOC(=O)NCCCC [2-[[(butylamino)carbonyl]oxy]ethyl acrylate]
- Water solubility (g/L at 20° C.) (20° C.): 5.0 g/L

Results, then the molecule that gave them:

- Water solubility (stated in words): Fully miscible
Molecule: C=Cn1ccnc1 [N-Vinyl-imidazole (VIM), N-Vinyl-imidazole]

- Water solubility (g/L at 20° C.) (20° C.): 3.6 g/L
Molecule: C=C(C)C(=O)OCCOCCOCCOC(=O)C(=C)C [triethylene glycol dimethacrylate]

- Water solubility (g/L at 20° C.) (20° C.): <10 g/L
Molecule: C=C(C)C(=O)OCCCO [hydroxypropyl methacrylate]

- Water solubility (20° C.): 100 g/L at 68° F. (20° C.)
Molecule: C=CN1CCCC1=O [N-Vinyl-pyrrolidone (NVP), N-Vinyl-pyrrolidone]

- Water solubility (stated in words): Water soluble
Molecule: Polyethylene glycol (200) diacrylate

- Water solubility (25° C.): 100 g/L
Molecule: C=CC(=O)OCCCO [hydroxypropyl acrylate]

- Water solubility (temperature not given): 18 g/L
Molecule: C=CC(=O)OCCOCCOCCOC(=O)C=C [Triethylene glycol diacrylate (TEGDA), Triethylene glycol diacrylate]

- Water solubility (g/L at 20° C.) (20° C.): 9.3 g/L
Molecule: C=CC(=O)OCC1(CC)COCOC1 [cyclic trimethylolpropane formal acrylate]

- Water solubility (stated in words): Water soluble
Molecule: Polyethylene glycol (400) diacrylate

- Water solubility (temperature not given): 12.6 g/L
Molecule: C=C(C)C(=O)OCCOCCOCCOCCOC(=O)C(=C)C [Tetraethylene glycol dimethacrylate]
